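Where inhibition never reached the appropriate level, the endpoint shown equals the highest concentration tested. Otherwise, values were interpolated linearly from a five-concentration, 48-hour dose response in 96-well plates. At the GI50, growth is halved. TGI is the concentration that stops growth completely.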
Legend:
Assay in all cases: growth of human tumour cells (NCI), 48 h
OVCAR-8 ovarian = tested on: OVCAR-8 ovarian
OVCAR-4 ovarian = tested on: OVCAR-4 ovarian
SW-620 colon = tested on: SW-620 colon
RXF 393 renal = tested on: RXF 393 renal
SK-MEL-5 melanoma = tested on: SK-MEL-5 melanoma
HCC-2998 colon = tested on: HCC-2998 colon
BT-549 breast = tested on: BT-549 breast
RPMI-8226 leukemia = tested on: RPMI-8226 leukemia
TK-10 renal = tested on: TK-10 renal
SK-MEL-2 melanoma = tested on: SK-MEL-2 melanoma

SMILES	GI50 (OVCAR-8 ovarian)	TGI (OVCAR-8 ovarian)	GI50 (OVCAR-4 ovarian)	TGI (OVCAR-4 ovarian)	GI50 (SW-620 colon)	TGI (SW-620 colon)	GI50 (RXF 393 renal)	TGI (RXF 393 renal)	GI50 (SK-MEL-5 melanoma)	TGI (SK-MEL-5 melanoma)	GI50 (HCC-2998 colon)	TGI (HCC-2998 colon)	GI50 (BT-549 breast)	TGI (BT-549 breast)	GI50 (RPMI-8226 leukemia)	TGI (RPMI-8226 leukemia)	GI50 (TK-10 renal)	TGI (TK-10 renal)	GI50 (SK-MEL-2 melanoma)	TGI (SK-MEL-2 melanoma)
O=C(/C=C/C=C/c1ccccc1)c1ccc(Nc2nc(Nc3ccccc3)nc(Nc3ccccc3)n2)cc1	31.4 µM	> 100 µM	88.1 µM	> 100 µM	> 100 µM	> 100 µM	1.62 µM	47.5 µM	13 µM	> 100 µM	> 100 µM	> 100 µM	> 100 µM	> 100 µM	4.12 µM	> 100 µM	> 100 µM	> 100 µM	> 100 µM	> 100 µM
COc1ccccc1CNCCCN1C(=O)c2ccc3c4c(ccc(c24)C1=O)C(=O)N(CCCNCCCCNCCCCN)C3=O	0.59 µM	6.59 µM	0.346 µM	1.4 µM	0.417 µM	10.1 µM	2.09 µM	10.1 µM	0.822 µM	2.23 µM	1.8 µM	6.39 µM	9.17 µM	24.5 µM	1.83 µM	9.62 µM	3.71 µM	51.7 µM	1.91 µM	4.87 µM
Cn1cc(C2=C(c3c4n(c5ccccc35)CC(CN)C4)C(=O)NC2=O)c2ccccc21 (stereo not drawn)	3.92 µM	8.93 µM	2.33 µM	10.6 µM	2.98 µM	6.84 µM	2.87 µM	6.19 µM	3.53 µM	6.89 µM	4.01 µM	8.02 µM	4.46 µM	10.5 µM	4.57 µM	11.1 µM	2.94 µM	8.07 µM	1.69 µM	5.35 µM
C(=N/Nc1ncnc2nc[nH]c12)/c1ccccn1	0.393 µM	> 100 µM	0.3 µM	> 100 µM	1.71 µM	> 100 µM	1.92 µM	7.32 µM	1.28 µM	4.61 µM	0.422 µM	> 36.8 µM	1.86 µM	> 100 µM	3.9 µM	> 100 µM	0.452 µM	> 100 µM	1.34 µM	> 100 µM
O=S(=O)(O)c1ccc(Cl)cc1.[Cd]	> 100 µM	> 100 µM	51.9 µM	> 100 µM	52.3 µM	> 100 µM	27.3 µM	79.3 µM	4.58 µM	16.9 µM	> 100 µM	> 100 µM	1.94 µM	3.9 µM	32.1 µM	> 100 µM	> 100 µM	> 100 µM	19.2 µM	40.4 µM
COC(=O)NNc1c([N+](=O)[O-])cnn(-c2ccccc2)c1=O	–	3.75 µM	–	3.85 µM	–	2.24 µM	–	10.1 µM	–	8.36 µM	–	9.72 µM	–	3.21 µM	–	19.2 µM	–	32.5 µM	–	11.5 µM
CCCn1cc(C2=C(c3cn(C)c4ccccc34)C(=O)NC2=O)c2ccccc21	2.01 µM	> 19.6 µM	3.46 µM	14.2 µM	0.968 µM	> 25 µM	0.663 µM	2.87 µM	0.554 µM	4.36 µM	4.85 µM	> 25 µM	1.36 µM	5.95 µM	1.95 µM	11.6 µM	3.45 µM	22 µM	0.702 µM	3.24 µM
CCOCCc1c(O)nc(SC)[nH]c1=O	> 100 µM	> 100 µM	> 100 µM	> 100 µM	> 100 µM	> 100 µM	> 100 µM	> 100 µM	> 100 µM	> 100 µM	> 100 µM	> 100 µM	> 100 µM	> 100 µM	> 100 µM	> 100 µM	> 100 µM	> 100 µM	> 100 µM	> 100 µM
O=C1Nc2ccccc2C1(c1ccc(O)c(F)c1)c1ccc(O)c(F)c1	0.333 µM	3.49 µM	0.237 µM	0.659 µM	20.6 µM	84.3 µM	0.969 µM	10.5 µM	14.7 µM	29.9 µM	4.72 µM	25.3 µM	0.166 µM	0.593 µM	15.7 µM	52.6 µM	0.409 µM	11.3 µM	11.4 µM	31.5 µM
CC(C)c1ccc2c(N=Nc3ccc(S(N)(=O)=O)cc3)c(O)[nH]c2c1	10.3 µM	> 20.1 µM	> 25 µM	> 25 µM	> 25 µM	> 25 µM	4.41 µM	> 16 µM	9.86 µM	> 25 µM	> 21.1 µM	> 25 µM	8.76 µM	> 16.4 µM	> 25 µM	> 25 µM	> 12.1 µM	> 24 µM	> 13.1 µM	> 21.6 µM
Fc1ccc(CNc2c3ccccc3nc3ccccc23)cc1	2.64 µM	12.5 µM	2.05 µM	7.34 µM	1.95 µM	6.84 µM	2.07 µM	5.4 µM	1.73 µM	3.1 µM	1.95 µM	4.62 µM	4.66 µM	18 µM	2.03 µM	5.79 µM	2.83 µM	10.6 µM	2.39 µM	6.01 µM
CCOC(=O)C1=C(N)Oc2c(sc3c(C)cccc23)C1c1ccc(Cl)cc1 (stereo not drawn)	4.24 µM	20.7 µM	6.92 µM	21 µM	3.64 µM	16.8 µM	1.45 µM	4.47 µM	4.04 µM	14.4 µM	2.32 µM	6.63 µM	3.3 µM	15.8 µM	3.26 µM	13.1 µM	12.6 µM	29.1 µM	5.83 µM	22.4 µM
C=C1C(=O)O[C@H]2[C@H]1CC/C(C=Nc1ccc(C(F)(F)F)cc1N)=C\CC[C@@]1(C)O[C@@H]21	4.29 µM	15.9 µM	4.44 µM	20.6 µM	3.67 µM	13.2 µM	2.87 µM	9.22 µM	13.5 µM	26.7 µM	16 µM	34.9 µM	7.04 µM	20.2 µM	3.24 µM	10.1 µM	6.14 µM	17.4 µM	11.9 µM	26.5 µM
C=C1C(=O)O[C@H]2[C@H]1CC/C(COC(=O)/C=C\C(=O)NCc1ccc(Cn3c(=O)sn(-c4ccc(OC)cc4)c3=O)cc1)=C\CC[C@@]1(C)O[C@@H]21	0.755 µM	2.62 µM	0.706 µM	1.39 µM	0.272 µM	1 µM	0.51 µM	1.17 µM	0.828 µM	1.53 µM	0.881 µM	1.67 µM	0.562 µM	1.29 µM	0.313 µM	2.43 µM	0.917 µM	1.67 µM	0.882 µM	1.94 µM
CSC(=S)N/N=C/c1ccccc1	–	> 100 µM	–	98.5 µM	–	> 100 µM	–	76.9 µM	–	> 100 µM	–	> 100 µM	–	> 100 µM	–	> 100 µM	–	> 100 µM	–	> 100 µM
CC(C)(C)C(=O)OCOP(=O)(OCOC(=O)C(C)(C)C)C1CCCN(OC(=O)c2ccccc2)C1=O (stereo not drawn)	0.543 µM	6.95 µM	3.56 µM	> 100 µM	1.42 µM	24.4 µM	0.545 µM	4.8 µM	0.983 µM	3.28 µM	0.99 µM	5.86 µM	2.64 µM	17.9 µM	0.605 µM	3.51 µM	2.16 µM	23.2 µM	1.99 µM	11.4 µM
CCCN(CCC)c1ccc(C=O)cc1	61.9 µM	> 100 µM	26.5 µM	> 100 µM	54.7 µM	> 100 µM	72.2 µM	> 100 µM	20.7 µM	54.5 µM	> 67.5 µM	> 100 µM	35.4 µM	> 100 µM	54.5 µM	> 100 µM	37.5 µM	> 100 µM	98.2 µM	> 100 µM
Cc1ccc(Cl)cc1Nc1nc(C(F)(F)F)ccc1C(=O)N/N=C/c1c(Cl)cccc1Cl	0.85 µM	> 50.3 µM	0.289 µM	–	0.475 µM	12.2 µM	1.23 µM	3.48 µM	1.52 µM	3.82 µM	1.24 µM	31.5 µM	1.62 µM	7.09 µM	0.32 µM	1.79 µM	1.4 µM	7.39 µM	1.94 µM	4.86 µM
CC(=O)Oc1ccc2ccc(=O)oc2c1OC(C)=O	–	> 100 µM	–	> 100 µM	–	> 100 µM	–	71.4 µM	–	94.2 µM	–	> 100 µM	–	> 100 µM	–	> 100 µM	–	> 100 µM	–	> 100 µM
C[N+](C)(C)CCC(=O)N1C/C(=C\c2ccccc2)C(=O)/C(=C/c2ccccc2)C1	–	8.44 µM	–	9.79 µM	–	2.68 µM	–	28.3 µM	–	22.6 µM	–	13.2 µM	–	4.95 µM	–	2.3 µM	–	23.6 µM	–	30.1 µM
COc1cc(C(=O)NC2CCN(C)CC2)ccc1Nc1ncc2c(n1)N(C1CCCC1)CC(F)(F)C(=O)N2C	< 0.01 µM	18.3 µM	0.264 µM	12.5 µM	< 0.01 µM	10.4 µM	0.054 µM	11.8 µM	< 0.0311 µM	1.28 µM	< 0.0166 µM	2.2 µM	0.0989 µM	15.5 µM	–	8.33 µM	1.39 µM	14.4 µM	2.23 µM	6.56 µM
O=C(O)c1cc(N/C=C2\C(=O)c3ccccc3OC2O)ccc1O (stereo not drawn)	27.4 µg/mL	> 150 µg/mL	29 µg/mL	> 150 µg/mL	23.4 µg/mL	54.2 µg/mL	18.5 µg/mL	40.1 µg/mL	18 µg/mL	39.3 µg/mL	27.4 µg/mL	50.2 µg/mL	15 µg/mL	71.8 µg/mL	2.24 µg/mL	7.82 µg/mL	39.2 µg/mL	118 µg/mL	30.6 µg/mL	68.7 µg/mL
CCOC(=O)c1c[nH]c2c(OCc3ccccc3)c3ccccc3c(O)c2c1=O	5.6 µM	41.3 µM	54.3 µM	> 100 µM	7.95 µM	> 100 µM	22.6 µM	55.7 µM	2.55 µM	7.52 µM	37.4 µM	> 100 µM	12.7 µM	37.8 µM	26.9 µM	> 100 µM	16 µM	45.5 µM	42.5 µM	> 100 µM
O=C1Nc2cc(Cl)ccc2Oc2cc(Oc3ccccc3)ccc21	8.81 µM	78.4 µM	6.52 µM	23.8 µM	2.73 µM	16.9 µM	2.09 µM	9.87 µM	3.13 µM	15.1 µM	8.8 µM	> 100 µM	8.97 µM	51.1 µM	5.35 µM	> 100 µM	12 µM	47.3 µM	4.99 µM	35.7 µM
CN(CCCCCl)P(=O)(OCc1ccc([N+](=O)[O-])o1)C(F)(F)c1ccc(CC(=O)N[C@@H](CC(=O)O)C(=O)N[C@@H](Cc2ccc(C(F)(F)P(=O)(OCc3ccc([N+](=O)[O-])o3)N(C)CCCCCl)cc2)C(N)=O)cc1 (stereo partly drawn)	> 100 µM	> 100 µM	39.1 µM	> 100 µM	81.9 µM	> 100 µM	> 100 µM	> 100 µM	43.8 µM	> 100 µM	24.5 µM	56.7 µM	18.8 µM	44.4 µM	25.5 µM	71.9 µM	76.1 µM	> 100 µM	21.6 µM	57.4 µM
COc1ccc(-c2cc(-c3ccc(O)cc3)nc3nc(=S)[nH]c(N)c23)cc1	16.1 µM	43.1 µM	25.3 µM	> 100 µM	16 µM	33.3 µM	28 µM	92.7 µM	16.1 µM	31 µM	16.2 µM	31.9 µM	12.4 µM	32.7 µM	10.6 µM	25.7 µM	32.2 µM	92.9 µM	18.4 µM	41.2 µM

From PubChem BioAssay (NCI)
